Patent US7868135B2, “Compositions of lipopeptide antibiotic derivatives and methods of use thereof” (priority 2003, dated 2011)
Read-outs that look alike come from different tables or passages of the source. Starred links: 1 amine or outer side, 2 acyl side, 3 side chain; linkers in the order of their positions; H or OH if unused. Positions of bridges follow the written chain, without caps; N, C: chain ends. Non-standard residues stand in square brackets, D forms with d. Residues, ends and D or L forms follow the SMILES beside them. ξ: configuration not given here. *: point of attachment. X25 = CC(NC(=O)[C@@H]1CCC(=O)N1)C(N[*:1])C(=O)[*:2]; ξAbu(βξ-NH2) = CC(N[*:3])C(N[*:1])C(=O)[*:2]; Pentadecanoyl = CCCCCCCCCCCCCCC(=O)*; ξAsp(βξ-Me) = CC(C(=O)O)C(N)C(=O)O; ξAbu(3ξ-NH2) = CC(N)C(N)C(=O)O; 12Ado = NCCCCCCCCCCCC(=O)O; Pip = O=C(O)[CH]1CCCCN1; ξD = NC(CC(=O)O)C(=O)O; ξPip = O=C(O)C1CCCCN1; ξV = CC(C)C(N)C(=O)O; ξP = O=C(O)C1CCCN1

Columns and labels:
[1] = tested on: Streptococcus pneumoniae SPN0002 (PISP); assay: Broad spectrum MIC, Table 17/18 column J; type: cell-based; conditions: condition J of Table 17, in µg/mL
Experimental: (§1) The antimicrobial lipopeptide derivatives described herein were tested for antimicrobial activity against Gram-positive bacteria as follows. The minimum inhibitory concentrations (MIC) of the antimicrobial lipopeptide derivatives of the invention were determined using NCCLS guidelines M7-A6 (2003) with a slight modification in that doubling serial dilutions were used to dilute the test compounds. The broth phase microdilution method was used. Isolated colonies of Staphylococcus aureus (MSSA) from an 18-24 hour blood agar plate cultures were used to inoculate cation adjusted Mueller-Hinton broth (CAMHB) supplemented with 0.625 mM calcium. […] A negative control containing media alone and a positive growth control containing bacteria with media alone were also included. MICs were determined after incubating the plates at about 37° C. for 24 hours. […] In Tables 1 to 16, R is the core cyclic peptide of amphomycin or aspartocin, which can be in the form of a β-isomer, an anhydro, a dianhydro, or any combination thereof. […] Furthermore, a person of skill in the art will appreciate that all the pounds, or groups of compounds, derived from the various combinations of and substituents shown in Tables 1 to 16, are disclosed by the present the same extent as if each compound or group of compounds was set forth individually.
(§2) Antimicrobial lipopeptide derivatives of the instant invention were tested for antimicrobial activity against Gram-positive bacteria in a variety of media conditions. The […] (MIC) of the antimicrobial lipopeptide derivatives were determined as described in Example 376. The various media used are described in Table 17.

[2] = tested on: Streptococcus pneumoniae SPN0023 (PRSP); assay: Broad spectrum MIC, Table 17/18 column K; type: cell-based; conditions: condition K of Table 17, in µg/mL
Experimental: as §1, §2

[3] = tested on: Staphylococcus epidermidis SEP0375 (MRSE); assay: Broad spectrum MIC, Table 17/18 column I; type: cell-based; conditions: condition I of Table 17, in µg/mL
Experimental: as §1, §2

[4] = tested on: Streptococcus pyogenes SPY0001 (PenS); assay: Broad spectrum MIC, Table 17/18 column M; type: cell-based; conditions: condition M of Table 17, in µg/mL
Experimental: as §1, §2

[5] = tested on: Staphylococcus aureus SAU0031 (VISA); assay: Broad spectrum MIC, Table 17/18 column G; type: cell-based; conditions: condition G of Table 17, in µg/mL
Experimental: as §1, §2

[6] = tested on: Staphylococcus aureus SAU0017 (MSSA); assay: Broad spectrum MIC, Table 17/18 columns E, F (+ 0.625 mM calcium; + calcium and 30% bovine serum); type: cell-based; conditions: in µg/mL; for MIC, media condition E: condition E: + 0.625 mM calcium; for MIC, media condition F: condition F: + calcium and 30% bovine serum
Experimental: as §1, §2

[7] = tested on: Streptococcus pneumoniae SPN0032 (PSSP); assay: Broad spectrum MIC, Table 17/18 column L; type: cell-based; conditions: condition L of Table 17, in µg/mL
Experimental: as §1, §2

[8] = tested on: Enterococcus faecium EFM0101 (VRE, MDR); assay: Broad spectrum MIC, Table 17/18 column A; type: cell-based; conditions: condition A of Table 17, in µg/mL
Experimental: as §1, §2

[9] = tested on: Staphylococcus aureus SAU0065 (MRSA); assay: Broad spectrum MIC, Table 17/18 column H; type: cell-based; conditions: condition H of Table 17, in µg/mL
Experimental: as §1, §2

[10] = tested on: Enterococcus faecalis EFS0004 (VSE); assay: Broad spectrum MIC, Table 17/18 B, C, D (CAMHB; + 0.625 mM calcium; + calcium and 30% bovine serum); type: cell-based; conditions: in µg/mL; for MIC, media condition B: condition B: CAMHB; for MIC, media condition C: condition C: + 0.625 mM calcium; for MIC, media condition D: condition D: + calcium and 30% bovine serum
Experimental: as §1, §2

[11] = tested on: Staphylococcus aureus (MSSA)
Method in brief: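 Broth microdilution MIC per NCCLS M7-A6 with doubling serial dilutions, in cation-adjusted Mueller-Hinton broth supplemented with 0.625 mM calcium.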

[12] = S. aureus (MSSA), CAMHB supplemented with 0.625 mM calcium, 24 hours at about 37° C., a range = compound tested multiple times

Compound	MIC, media condition J [1]	MIC, media condition K [2]	MIC, media condition I [3]	MIC, media condition M [4]	MIC, media condition G [5]	MIC, media condition E [6]	MIC, media condition F [6]	MIC, media condition L [7]	MIC, media condition A [8]	MIC, media condition H [9]	MIC, media condition B [10]	MIC, media condition C [10]	MIC, media condition D [10]	MIC ([11]; 24 h)	MIC [11, 12]
CCCCCCCCCCCCCCC(=O)NC(CC(=O)O)C(=O)NC1C(=O)N2CCCCC2C(=O)NC(C(C)C(=O)O)C(=O)NC(CC(=O)O)C(=O)NCC(=O)NC(CC(=O)O)C(=O)NCC(=O)NC(C(C)N)C(=O)NC(C(C)C)C(=O)N2CCCC2C(=O)NC1C (stereo not shown) [Compound 2, C15-Amphomycin]	0.125	0.125	4	1	8	4	8	0.5	4	4	2	1	64		
CCCCCCCCCCCCCCCC(=O)NC(CC(=O)O)C(=O)NC1C(=O)N2CCCCC2C(=O)NC(C(C)C(=O)O)C(=O)NC(CC(=O)O)C(=O)NCC(=O)NC(CC(=O)O)C(=O)NCC(=O)NC(C(C)N)C(=O)NC(C(C)C)C(=O)N2CCCC2C(=O)NC1C (stereo not shown) [Compound 11, C16-Amphomycin]	0.25	0.125	1	0.25-0.5	2-4	0.5	8-16	0.25	0.5-1	2-4	0.5	0.5-1	64	0.5 µg/mL	
CCCCCCCCCCCCCCCCC(=O)NC(CC(=O)O)C(=O)NC1C(=O)N2CCCCC2C(=O)NC(C(C)C(=O)O)C(=O)NC(CC(=O)O)C(=O)NCC(=O)NC(CC(=O)O)C(=O)NCC(=O)NC(C(C)N)C(=O)NC(C(C)C)C(=O)N2CCCC2C(=O)NC1C (stereo not shown) [Compound 12, C17-Amphomycin]	0.25	0.125	2	0.5	4-8	1-2	32-64	0.25-0.5	0.5-1	1-2	0.5-1	1	64	1 to 2 µg/mL	
CCCCCCCCCCCCOc1ccc(C(=O)NC(CC(=O)O)C(=O)NC2C(=O)N3CCCCC3C(=O)NC(C(C)C(=O)O)C(=O)NC(CC(=O)O)C(=O)NCC(=O)NC(CC(=O)O)C(=O)NCC(=O)NC(C(C)N)C(=O)NC(C(C)C)C(=O)N3CCCC3C(=O)NC2C)cc1 (stereo not shown) [Compound 15, CH3—(CH2)11—O-p-Ph-C(═O)-Amphomycin]	0.125-1	0.125-0.5	2-4	0.5-2	4-8	2-4	32	0.25-1	2-4	2-8	2-4	1-4	>64	2 to 4 µg/mL	
CCCCCCCCCCCCOc1ccc(C(=O)NC(CC(=O)O)C(=O)NC2C(=O)N3CCCCC3C(=O)NC(C(C)C(=O)O)C(=O)NC(CC(=O)O)C(=O)NCC(=O)NC(CC(=O)O)C(=O)NCC(=O)NC(C(C)NC(=O)CN)C(=O)NC(C(C)C)C(=O)N3CCCC3C(=O)NC2C)cc1 (stereo not shown) [Compound 88, CH3—(CH2)11—O-p-Ph-C(═O)-Amphomycin-9-Gly]	0.25	0.125	0.5-1	0.25-0.5	2-4	0.5-1	32-64	0.25	0.25-0.5	0.5-1	0.5-1	0.25-0.5	>64		
CCCCCCCCCCCCCCC(=O)NC(CC(=O)O)C(=O)NC1C(=O)N2CCCCC2C(=O)NC(C(C)C(=O)O)C(=O)NC(CC(=O)O)C(=O)NCC(=O)NC(CC(=O)O)C(=O)NCC(=O)NC(C(C)NC(=O)[C@@H]2CCC(=O)N2)C(=O)NC(C(C)C)C(=O)N2CCCC2C(=O)NC1C (stereo partly drawn) [Compound 373] (Pentadecanoyl-[ξD][ξAbu(βξ-NH2)][ξPip][ξAsp(βξ-Me)][ξD]G[ξD]G[X25][ξV][ξP]; lactam 2-C)														>64 µg/mL	
CC(=O)NCCCCCCCCCCCC(=O)NC(CC(=O)O)C(=O)NC1C(=O)N2CCCCC2C(=O)NC(C(C)C(=O)O)C(=O)NC(CC(=O)O)C(=O)NCC(=O)NC(CC(=O)O)C(=O)NCC(=O)NC(C(C)N)C(=O)NC(C(C)C)C(=O)N2CCCC2C(=O)NC1C (stereo not drawn) [Compound 374, (12-Acetylaminododecanoyl)-Amphomycin] (Ac-[12Ado]D[ξAbu(βξ-NH2)][Pip][ξAsp(βξ-Me)]DGDG[ξAbu(3ξ-NH2)]VP; lactam 3-C; configuration not given here; N-terminus assumed)														>64 µg/mL	
CC(C)C1NC(=O)C(C(C)N)NC(=O)CNC(=O)C(CC(=O)O)NC(=O)CNC(=O)C(CC(=O)O)NC(=O)C(C(C)C(=O)O)NC(=O)C2CCCCN2C(=O)C(NC(=O)C(CC(=O)O)NC(=O)CCCCCCCCCCCN)C(C)NC(=O)C2CCCN2C1=O (stereo not drawn) [Compound 375, (12-Aminododecoyl)-Amphomycin] (H-[12Ado]D[ξAbu(βξ-NH2)][Pip][ξAsp(βξ-Me)]DGDG[ξAbu(3ξ-NH2)]VP; lactam 3-C; configuration not given here)														>64 µg/mL	
(2-Dodecanoylamino-Thiazol-4-yl)Acetyl-Amphomycin [Compound 337]															0.25 to 1 µg/mL
(12-Methyl-Tetradec-2-Enoyl)-Aspartocin-9-Sar [Compound 371]															0.5 µg/mL
C12-Amphomycin-9-gDab [Compound 138]															138/32 μg/mL
C13-Amphomycin-9-gDab [Compound 135]															135/8 μg/mL
C14-Amphomycin-9-gDab [Compound 139]															139/4 μg/mL
